Assay results as given in patent US6831092B1 (priority 1999, dated 2004).
Like-named read-outs stand apart in the source and are kept apart here.

Tests used:
[1] = system: fungi of cucumber downy mildew; experiment: Test on preventive effect against cucumber downy mildew; format: in vivo, fungi of cucumber downy mildew on cucumber (cultivar: Suyo)
Excerpt: Test on Preventive Effect Against Cucumber Downy Mildew
Cucumber (cultivar: Suyo) was cultivated in a polyethylene pot having a diameter of 7.5 cm, and when the cucumber reached a two-leaf stage, two seedlings of the cucumber were sprayed with a drug solution having predetermined concentrations of sample compounds in an amount of 1, 000 l/ha by a spray gun. On the next day after the treatment, the cucumber was sprayed and inoculated with a zoosporangia suspension of fungi of cucumber downy mildew, and the cucumber was kept in a moist chamber at 20° C. for 18 hours. Then, it was kept in a constant temperature chamber of 20° C. for from 6 to 7 days, and the average area of lesions on the first leaves of the two seedlings was examined to find the incidence according to the following formula. Here, the average area of lesions in the non-treated plot was obtained in the same manner as the treated plot, except that the cucumber was sprayed with water instead of the drug solution by a spray gun. […]
a: Average area of lesions in the treated plot b: Average area of lesions in the non-treated plot
Further, the theoretical value can be calculated from the following Colby's formula:
Theoretical value=(X×Y)/100
X: Incidence (%) in the case of treatment with the compound No. 1 alone Y: Incidence (%) in the case of treatment with the compound a, b, c or d alone When the experimental values are lower than the theoretical values by Colby's formula, the pesticidal composition of the present invention has a synergistic effect of controlling pests. The theoretical values by Colby's formula in such cases are shown in parenthesis ( ) in Tables 1 to 4.

[2] = system: fungi of tomato late blight; format: in vivo, fungi of tomato late blight on tomato (cultivar: Ponderosa)

CCC(C)(NC(=O)c1cc(Cl)c(C)c(Cl)c1)C(=O)CCl (centres unmarked) [Compd. c, 3.5-dichloro-N-(3-chloro-1-ethyl-1-methyl-2-oxopropyl)-4-methylbenzamide]
Incidence of cucumber downy mildew ([1]; Compd. c 0.5 ppm alone (Compd. No. 1 0 ppm), Table 3): 95.8%
Incidence of cucumber downy mildew ([1]; Compd. c 1 ppm alone (Compd. No. 1 0 ppm), Table 3): 71.2%
Incidence of cucumber downy mildew ([1]; Compd. c 2 ppm alone (Compd. No. 1 0 ppm), Table 3): 61.0%
Incidence of tomato late blight ([2]; Compd. c 1 ppm alone (Compd. No. 1 0 ppm), Table 7): 62.5%
Incidence of tomato late blight ([2]; Compd. c 4 ppm alone (Compd. No. 1 0 ppm), Table 7): 62.5%
Incidence of tomato late blight ([2]; Compd. c 8 ppm alone (Compd. No. 1 0 ppm), Table 7): 31.3%

CCNc1nc(CC)c(C(=O)NC(C#N)c2cccs2)s1 (centres unmarked) [Compd. d, N-(a-cyano-2-thienyl)-4-ethyl-2-(ethylamino)-5-thiazole carboxyamide]
Incidence of cucumber downy mildew ([1]; Compd. d 1 ppm alone (Compd. No. 1 0 ppm), Table 4): 100%
Incidence of cucumber downy mildew ([1]; Compd. d 8 ppm alone (Compd. No. 1 0 ppm), Table 4): 15%
Incidence of cucumber downy mildew ([1]; Compd. d 16 ppm alone (Compd. No. 1 0 ppm), Table 4): 20%
Incidence of tomato late blight ([2]; Compd. d 4 ppm alone (Compd. No. 1 0 ppm), Table 8): 75%
Incidence of tomato late blight ([2]; Compd. d 8 ppm alone (Compd. No. 1 0 ppm), Table 8): 29.2%
Incidence of tomato late blight ([2]; Compd. d 16 ppm alone (Compd. No. 1 0 ppm), Table 8): 16.5%

CSC1=N[C@@](C)(c2ccccc2)C(=O)N1Nc1ccccc1 [Compd. a, (S)-5-methyl-2-methylthio-5-phenyl-3-phenylamino-3.5-dihydroimidazole-4-one]
Incidence of cucumber downy mildew ([1]; Compd. a 0.25 ppm alone (Compd. No. 1 0 ppm), Table 1): 82.1%
Incidence of cucumber downy mildew ([1]; Compd. a 0.5 ppm alone (Compd. No. 1 0 ppm), Table 1): 66.7%
Incidence of cucumber downy mildew ([1]; Compd. a 1 ppm alone (Compd. No. 1 0 ppm), Table 1): 12.8%
Incidence of tomato late blight ([2]; Compd. a 0.062 ppm alone (Compd. No. 1 0 ppm), Table 5): 100%
Incidence of tomato late blight ([2]; Compd. a 0.125 ppm alone (Compd. No. 1 0 ppm), Table 5): 97.2%
Incidence of tomato late blight ([2]; Compd. a 0.25 ppm alone (Compd. No. 1 0 ppm), Table 5): 94.4%
Incidence of tomato late blight ([2]; Compd. a 0.5 ppm alone (Compd. No. 1 0 ppm), Table 5): 66.1%
Incidence of tomato late blight ([2]; Compd. a 1 ppm alone (Compd. No. 1 0 ppm), Table 5): 53.5%

Cc1ccc(C(C)NC(=O)[C@@H](NC(=O)OC(C)C)C(C)C)cc1 (stereo partly drawn) [Compd. b, isopropyl 2-methyl-1-((1-p-tolylethyl)carbamoyl)-(S)-propylcarbamate]
Incidence of cucumber downy mildew ([1]; Compd. b 2 ppm alone (Compd. No. 1 0 ppm), Table 2): 87.6%
Incidence of cucumber downy mildew ([1]; Compd. b 4 ppm alone (Compd. No. 1 0 ppm), Table 2): 67.0%
Incidence of cucumber downy mildew ([1]; Compd. b 8 ppm alone (Compd. No. 1 0 ppm), Table 2): 46.4%
Incidence of cucumber downy mildew ([1]; Compd. b 16 ppm alone (Compd. No. 1 0 ppm), Table 2): 15.5%
Incidence of tomato late blight ([2]; Compd. b 1 ppm alone (Compd. No. 1 0 ppm), Table 6): 100%
Incidence of tomato late blight ([2]; Compd. b 4 ppm alone (Compd. No. 1 0 ppm), Table 6): 71.9%
Incidence of tomato late blight ([2]; Compd. b 8 ppm alone (Compd. No. 1 0 ppm), Table 6): 46.9%

Cc1ccc(-c2c(Cl)nc(C#N)n2S(=O)(=O)N(C)C)cc1 [Compd. No. 1, 4-chloro-2-cyano-1-dimethylsulfamoyl-5-(4-methylphenyl)imidazole]
Incidence of cucumber downy mildew ([1]; Compd. No. 1 0.06 ppm alone (Compd. d 0 ppm), Table 4): 85%
Incidence of cucumber downy mildew ([1]; Compd. No. 1 0.062 ppm alone (Compd. a 0 ppm), Table 1): 87.6%
Incidence of cucumber downy mildew ([1]; Compd. No. 1 0.062 ppm alone (Compd. b 0 ppm), Table 2): 84.6%
Incidence of cucumber downy mildew ([1]; Compd. No. 1 0.062 ppm alone (Compd. c 0 ppm), Table 3): 25.4%
Incidence of cucumber downy mildew ([1]; Compd. No. 1 0.125 ppm alone (Compd. a 0 ppm), Table 1): 20.5%
Incidence of cucumber downy mildew ([1]; Compd. No. 1 0.125 ppm alone (Compd. b 0 ppm), Table 2): 56.7%
Incidence of cucumber downy mildew ([1]; Compd. No. 1 0.125 ppm alone (Compd. c 0 ppm), Table 3): 2.5%
Incidence of cucumber downy mildew ([1]; Compd. No. 1 0.25 ppm alone (Compd. a 0 ppm), Table 1): 5.1%
Incidence of cucumber downy mildew ([1]; Compd. No. 1 0.25 ppm alone (Compd. c 0 ppm), Table 3): 2.5%
Incidence of cucumber downy mildew ([1]; Compd. No. 1 0.25 ppm alone (Compd. d 0 ppm), Table 4): 5.0%
Incidence of cucumber downy mildew ([1]; Compd. No. 1 0.5 ppm alone (Compd. d 0 ppm), Table 4): 2.5%
Incidence of cucumber downy mildew ([1]; Compd. No. 1 1 ppm alone (Compd. d 0 ppm), Table 4): 0%
Incidence of tomato late blight ([2]; Compd. No. 1 0.062 ppm alone (Compd. a 0 ppm), Table 5): 91.3%
Incidence of tomato late blight ([2]; Compd. No. 1 0.062 ppm alone (Compd. b 0 ppm), Table 6): 90.6%
Incidence of tomato late blight ([2]; Compd. No. 1 0.062 ppm alone (Compd. c 0 ppm), Table 7): 65.6%
Incidence of tomato late blight ([2]; Compd. No. 1 0.125 ppm alone (Compd. c 0 ppm), Table 7): 37.5%
Incidence of tomato late blight ([2]; Compd. No. 1 0.125 ppm alone (Compd. d 0 ppm), Table 8): 100%
Incidence of tomato late blight ([2]; Compd. No. 1 0.25 ppm alone (Compd. a 0 ppm), Table 5): 25.6%
Incidence of tomato late blight ([2]; Compd. No. 1 0.25 ppm alone (Compd. b 0 ppm), Table 6): 78.1%
Incidence of tomato late blight ([2]; Compd. No. 1 0.25 ppm alone (Compd. c 0 ppm), Table 7): 21.9%
Incidence of tomato late blight ([2]; Compd. No. 1 0.25 ppm alone (Compd. d 0 ppm), Table 8): 100%
Incidence of tomato late blight ([2]; Compd. No. 1 0.50 ppm alone (Compd. b 0 ppm), Table 6): 50.0%
Incidence of tomato late blight ([2]; Compd. No. 1 0.50 ppm alone (Compd. c 0 ppm), Table 7): 6.3%
Incidence of tomato late blight ([2]; Compd. No. 1 0.5 ppm alone (Compd. d 0 ppm), Table 8): 83.4%
Incidence of tomato late blight ([2]; Compd. No. 1 1.125 ppm alone (Compd. a 0 ppm), Table 5): 69.2%
Incidence of tomato late blight ([2]; Compd. No. 1 1.125 ppm alone (Compd. b 0 ppm), Table 6): 87.5%
